This note sets out measurements from ChEMBL document CHEMBL2151039, “Discovery and development of α7 nicotinic acetylcholine receptor modulators” (J Med Chem, 2011).

Test [1] addresses Neuronal acetylcholine receptor subunit alpha-7 (Homo sapiens, UniProt P36544). As to the kind of experiment: Antagonist activity at human alpha7 nAChR expressed in Xenopus oocyte. It counts as functional.
The species entered for test [2] is Homo sapiens. Kind of test: Selectivity ratio of IC50 for nAChR to IC50 for human alpha7 nAChR.
Test [3] deals with Neuronal acetylcholine receptor subunit alpha-7 (Mus musculus, UniProt P49582). As to the kind of experiment: Displacement of [125I]alpha-Bungarotoxin from alpha7 nAchR in mouse hippocampal membranes. Type of test: cell membranes, Hippocampus.

Where a SMILES comes first, the peptide text is derived from it. Bridges are numbered along the chain shown (N, C = ends).

Chain of Neuronal acetylcholine receptor subunit alpha-7 (Mus musculus, UniProt P49582) (P49582 whole entry): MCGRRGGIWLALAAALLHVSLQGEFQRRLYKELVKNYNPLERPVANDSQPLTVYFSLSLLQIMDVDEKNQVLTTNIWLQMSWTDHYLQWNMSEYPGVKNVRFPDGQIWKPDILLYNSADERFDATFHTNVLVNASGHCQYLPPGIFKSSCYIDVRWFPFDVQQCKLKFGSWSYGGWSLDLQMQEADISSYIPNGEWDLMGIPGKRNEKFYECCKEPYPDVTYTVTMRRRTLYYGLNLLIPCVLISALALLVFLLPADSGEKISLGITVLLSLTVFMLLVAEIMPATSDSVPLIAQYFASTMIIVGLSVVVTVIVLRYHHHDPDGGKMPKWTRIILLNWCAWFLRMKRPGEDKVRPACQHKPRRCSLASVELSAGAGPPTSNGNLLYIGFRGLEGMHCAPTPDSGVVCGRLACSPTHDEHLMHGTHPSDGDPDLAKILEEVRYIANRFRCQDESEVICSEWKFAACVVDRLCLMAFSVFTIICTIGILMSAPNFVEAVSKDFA
Chain of Neuronal acetylcholine receptor subunit alpha-7 (Homo sapiens, UniProt P36544) (P36544 whole entry): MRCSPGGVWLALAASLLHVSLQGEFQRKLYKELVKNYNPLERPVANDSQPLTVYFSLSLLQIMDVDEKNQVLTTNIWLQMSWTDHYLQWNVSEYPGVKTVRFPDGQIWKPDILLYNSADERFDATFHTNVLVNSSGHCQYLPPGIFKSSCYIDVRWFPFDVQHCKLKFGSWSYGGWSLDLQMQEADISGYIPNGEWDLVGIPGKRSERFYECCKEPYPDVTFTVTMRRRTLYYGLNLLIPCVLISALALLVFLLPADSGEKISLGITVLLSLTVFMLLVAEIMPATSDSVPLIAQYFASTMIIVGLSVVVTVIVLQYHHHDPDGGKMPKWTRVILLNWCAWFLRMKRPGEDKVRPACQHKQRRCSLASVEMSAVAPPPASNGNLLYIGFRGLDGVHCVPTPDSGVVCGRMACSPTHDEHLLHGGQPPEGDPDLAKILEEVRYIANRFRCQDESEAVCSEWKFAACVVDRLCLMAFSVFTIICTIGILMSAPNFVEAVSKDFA

Regarding `CC(C)C[C@@H]1NC(=O)[C@H](CCCNC(=N)N)NC(=O)[C@@H]2CSSC[C@H](NC(=O)[C@H](CCC(=O)O)NC(=O)[C@@H](N)CC(=O)O)C(=O)N[C@@H](CSSC[C@@H](C(=O)N[C@@H](CCCNC(=N)N)C(=O)N[C@@H](CCCNC(=N)N)C(=O)N[C@@H](CCCNC(=N)N)C(=O)O)NC(=O)[C@H](CC(=O)O)NC(=O)[C@H](Cc3cnc[nH]3)NC(=O)[C@@H]3CCCN3C(=O)[C@H](CC(N)=O)NC(=O)[C@H](CC(N)=O)NC1=O)C(=O)N[C@@H](CO)C(=O)N[C@@H](CC(N)=O)C(=O)N1CCC[C@H]1C(=O)N[C@@H](C)C(=O)N2` (H-DECCSNPACRLNNPHDCRRR-OH; disulfide 3-9, 4-17), half-maximal inhibition in test [1] (IC50) required 1.09 nM. Moreover, the Ratio IC50 in test [2] is greater than 800. This compound also displayed a Ki in test [3] of 7.04 nM.
